# Assay results published in the supplement of paper PMC10307832.
# How the values were obtained:
# Experiment in all cases: relative viability (nuclei count vs DMSO), 5 days (fraction); higher = more cells survive
# [1] = compound: CN(C)C/C=C/C(=O)Nc1cc2c(Nc3ccc(F)c(Cl)c3)ncnc2cc1O[C@H]1CCOC1 [Afatinib] + Nc1nc2[nH]cc(CCc3ccc(C(=O)N[C@@H](CCC(=O)O)C(=O)O)cc3)c2c(=O)[nH]1 [Pemetrexed] (partner 0.2 µM)
# In short: (§1)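 One day after seeding in 1536-well plates, lung cancer cell lines were dosed by pin tool. Dosing was either single-drug or a fixed anchor-drug dose plus five library-drug doses (not always all listed) in √10 steps. After 5 days, nuclei were stained in one fix-and-stain step and counted on 4× images, and relative viability is the nuclei count of treated wells over that of vehicle wells, given as the median of duplicate plates.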
# [2] = compound: CN(C)C/C=C/C(=O)Nc1cc2c(Nc3ccc(F)c(Cl)c3)ncnc2cc1O[C@H]1CCOC1 [Afatinib] + C[C@@H](Oc1cc(-c2cnn(C3CCNCC3)c2)cnc1N)c1c(Cl)ccc(F)c1Cl [Crizotinib] (partner 1 µM)
# In short: as §1
# [3] = compound: CN(C)C/C=C/C(=O)Nc1cc2c(Nc3ccc(F)c(Cl)c3)ncnc2cc1O[C@H]1CCOC1 [Afatinib] + Cc1nc(Nc2ncc(C(=O)Nc3c(C)cccc3Cl)s2)cc(N2CCN(CCO)CC2)n1 [Dasatinib] (partner 0.075 µM)
# In short: as §1
# [4] = compound: CN(C)C/C=C/C(=O)Nc1cc2c(Nc3ccc(F)c(Cl)c3)ncnc2cc1O[C@H]1CCOC1 [Afatinib] + CS(=O)(=O)CCNCc1ccc(-c2ccc3ncnc(Nc4ccc(OCc5cccc(F)c5)c(Cl)c4)c3c2)o1 [Lapatinib] (partner 2 µM)
# In short: as §1
Cell Line,relative viability ([1]; first compound 0.005 µM),relative viability ([1]; first compound 0.01581 µM),relative viability ([1]; first compound 0.05 µM),relative viability ([1]; first compound 0.1581 µM),relative viability ([1]; first compound 0.5 µM),relative viability ([2]; first compound 0.005 µM),relative viability ([2]; first compound 0.01581 µM),relative viability ([2]; first compound 0.05 µM),relative viability ([2]; first compound 0.1581 µM),relative viability ([2]; first compound 0.5 µM),relative viability ([3]; first compound 0.005 µM),relative viability ([3]; first compound 0.01581 µM),relative viability ([3]; first compound 0.05 µM),relative viability ([3]; first compound 0.1581 µM),relative viability ([3]; first compound 0.5 µM),relative viability ([4]; first compound 0.005 µM),relative viability ([4]; first compound 0.01581 µM),relative viability ([4]; first compound 0.05 µM),relative viability ([4]; first compound 0.1581 µM),relative viability ([4]; first compound 0.5 µM)
NCI-H23,0.667,0.609,0.586,0.704,0.567,0.516,0.459,0.612,0.44,0.639,0.682,0.69,0.754,0.884,0.83,1.34,1.23,1.08,1.04,1.01
RERF-LC-KJ,0.466,0.442,0.484,0.481,0.453,0.921,0.842,0.801,0.731,0.705,0.663,0.662,0.736,0.61,0.616,0.83,0.919,0.849,0.834,0.83
NCI-H358,0.16,0.146,0.153,0.137,0.141,0.541,0.423,0.387,0.241,0.256,0.125,0.111,0.113,0.156,0.128,0.502,0.356,0.408,0.436,0.432
LC-2-ad,0.275,0.273,0.259,0.28,0.274,0.566,0.422,0.409,0.382,0.408,0.735,0.389,0.527,0.509,0.477,1.07,0.991,1.07,0.961,0.925
HCC-15,0.226,0.222,–,0.207,0.234,0.842,0.904,0.804,0.837,0.866,0.609,0.646,0.617,0.609,0.642,0.84,0.92,0.859,0.859,0.82
NCI-H2405,1.09,1.14,1.12,1.01,0.953,0.753,0.86,0.835,0.811,0.819,0.243,0.201,0.207,0.219,0.196,1.11,1.09,1.33,1.04,1.07
LXF-289,0.909,0.88,0.843,0.879,0.824,0.845,0.777,0.793,0.7,0.811,0.238,0.27,0.253,0.208,0.228,0.937,0.91,0.95,0.903,0.917
